Data taken from publication PMC9516332 (Frontiers in Oncology, 2022).
Read-outs that look alike come from different tables or passages of the source.

Key:
[1] = target: panel of 255 wild-type kinases (Homo sapiens, UniProt P08581); assay: Kinase panel profiling at 1 µmol/L (MSA or IMAP), percentage inhibition; assay type: biochemical; conditions: MET; 1 µmol/L single concentration
[2] = target: panel of 255 wild-type kinases (Homo sapiens, UniProt P31749); assay: as above; assay type: biochemical; conditions: AKT1 kinase assay; 1 µmol/L single concentration; read-out: %-inhibition AKT1
[3] = target: T1, panel of 255 wild-type kinases (Homo sapiens, UniProt Q96PF2); assay: as above; assay type: biochemical; conditions: kinase TSSK2; 1 µmol/L single concentration; read-out: %-inhibition at 1 µmol/L, TSSK2
T1 sequence (Q96PF2 1-358): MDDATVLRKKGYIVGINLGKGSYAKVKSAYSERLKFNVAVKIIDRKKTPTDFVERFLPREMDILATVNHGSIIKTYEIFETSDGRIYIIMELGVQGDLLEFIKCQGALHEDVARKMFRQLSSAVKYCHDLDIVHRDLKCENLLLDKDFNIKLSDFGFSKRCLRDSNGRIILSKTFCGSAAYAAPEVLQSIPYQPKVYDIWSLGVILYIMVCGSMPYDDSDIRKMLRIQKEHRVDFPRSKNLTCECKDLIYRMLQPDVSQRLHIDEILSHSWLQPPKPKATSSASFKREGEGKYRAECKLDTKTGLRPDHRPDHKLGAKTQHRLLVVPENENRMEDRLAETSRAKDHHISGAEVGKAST

[4] = target: panel of 255 wild-type kinases (Homo sapiens, UniProt Q9Y463); assay: as above; assay type: biochemical; conditions: kinase DYRK1B; 1 µmol/L single concentration; read-out: %-inhibition at 1 µmol/L, DYRK1B
[5] = tested on: 134 cancer cell lines
[6] = tested on: 134 cancer cell lines; assay: Cell viability assay (ATPlite, 72 hours), IC50 on cancer cell line panel

CCN1CCN(c2ccc(Nc3cc(N(C)C(=O)Nc4c(Cl)c(OC)cc(OC)c4Cl)ncn3)cc2)CC1 [infigratinib]
inhibition at 1 µM [1]: 0.848%
inhibition at 1 µM [2]: -12%
inhibition at 1 µM [3]: -3.74%
inhibition at 1 µM [4]: -2.3%
IC50 [5]: > 3.16 µM
IC50 ([6]; HEC-6, read-out: IC50 in cell proliferation assay, HEC-6 cell line (EGFR p.A289V)): > 3.16 µM
IC50 ([6]; Homo sapiens, 769-P, read-out: IC50 in cell proliferation assay, cell line 769-P): > 3.16 µM
IC50 ([6]; Homo sapiens, 786-0, read-out: IC50 in cell proliferation assay, cell line 786-O): > 3.16 µM
IC50 ([6]; Homo sapiens, A 172, read-out: IC50 in cell proliferation assay, cell line A-172): 0.041 µM
IC50 ([6]; Homo sapiens, A204, read-out: IC50 in cell proliferation assay, cell line A-204): 0.063 µM
IC50 ([6]; Homo sapiens, A498, read-out: IC50 in cell proliferation assay, cell line A-498): 2.97 µM
IC50 ([6]; Homo sapiens, A549, read-out: IC50 in cell proliferation assay, cell line A-549): > 3.16 µM
IC50 ([6]; Homo sapiens, A704, read-out: IC50 in cell proliferation assay, cell line A-704): > 3.16 µM
IC50 ([6]; Homo sapiens, A-375, read-out: IC50 in cell proliferation assay, cell line A-375 (BRAF p.V600E)): > 3.16 µM
IC50 ([6]; Homo sapiens, A-427, read-out: IC50 in cell proliferation assay, cell line A-427): 1.79 µM
IC50 ([6]; Homo sapiens, ACHN, read-out: IC50 in cell proliferation assay, cell line ACHN): 2.75 µM
IC50 ([6]; Homo sapiens, AN3-CA, read-out: IC50 in cell proliferation assay, cell line AN3-CA (FGFR2 p.N549K)): 0.203 µM
IC50 ([6]; Homo sapiens, ASPC1, read-out: IC50 in cell proliferation assay, cell line AsPC-1): > 3.16 µM
IC50 ([6]; Homo sapiens, AU565, read-out: IC50 in cell proliferation assay, cell line AU565 (ERBB2 amplification)): > 3.16 µM
IC50 ([6]; Homo sapiens, BT-20, read-out: IC50 in cell proliferation assay, cell line BT-20): > 3.16 µM
IC50 ([6]; Homo sapiens, BT-474, read-out: IC50 in cell proliferation assay, cell line BT-474 (ERBB2 amplification)): > 3.16 µM
IC50 ([6]; Homo sapiens, BT-549, read-out: IC50 in cell proliferation assay, cell line BT-549): > 3.16 µM
IC50 ([6]; Homo sapiens, BXPC-3, read-out: IC50 in cell proliferation assay, cell line BxPC-3): > 3.16 µM
IC50 ([6]; Homo sapiens, C-33-A, read-out: IC50 in cell proliferation assay, cell line C-33 A): > 3.16 µM
IC50 ([6]; Homo sapiens, CAL-27, read-out: IC50 in cell proliferation assay, cell line CAL-27): > 3.16 µM
IC50 ([6]; Homo sapiens, CCF-STTG1, read-out: IC50 in cell proliferation assay, cell line CCF-STTG1): > 3.16 µM
IC50 ([6]; Homo sapiens, CCRF-CEM, read-out: IC50 in cell proliferation assay, cell line CCRF-CEM): > 3.16 µM
IC50 ([6]; Homo sapiens, COLO 205, read-out: IC50 in cell proliferation assay, cell line COLO 205 (BRAF p.V600E)): > 3.16 µM
IC50 ([6]; Homo sapiens, COLO-829, read-out: IC50 in cell proliferation assay, cell line COLO 829 (BRAF p.V600E)): > 3.16 µM
IC50 ([6]; Homo sapiens, DLD-1, read-out: IC50 in cell proliferation assay, cell line DLD-1): > 3.16 µM
IC50 ([6]; Homo sapiens, DU-4475, read-out: IC50 in cell proliferation assay, cell line DU4475 (BRAF p.V600E)): > 3.16 µM
IC50 ([6]; Homo sapiens, Daoy, read-out: IC50 in cell proliferation assay, cell line Daoy): > 3.16 µM
IC50 ([6]; Homo sapiens, DoTc2-4510, read-out: IC50 in cell proliferation assay, cell line DoTc2 4510): > 3.16 µM
IC50 ([6]; Homo sapiens, FaDu, read-out: IC50 in cell proliferation assay, cell line FaDu): > 3.16 µM
IC50 ([6]; Homo sapiens, G-361, read-out: IC50 in cell proliferation assay, cell line G-361 (BRAF p.V600E)): > 3.16 µM
IC50 ([6]; Homo sapiens, HCC827, read-out: IC50 in cell proliferation assay, cell line HCC827 (EGFR exon19del)): 5 µM
IC50 ([6]; Homo sapiens, HCC4006, read-out: IC50 in cell proliferation assay, cell line HCC4006 (EGFR exon19del)): 6.22 µM
IC50 ([6]; Homo sapiens, HCT-15, read-out: IC50 in cell proliferation assay, cell line HCT 15): > 3.16 µM
IC50 ([6]; Homo sapiens, HCT-116, read-out: IC50 in cell proliferation assay, cell line HCT 116): > 3.16 µM
IC50 ([6]; Homo sapiens, HEC-1, read-out: IC50 in cell proliferation assay, HEC-1 cell line): 3.04 µM
IC50 ([6]; Homo sapiens, HEC-1B, read-out: IC50 in cell proliferation assay, HEC-1-B cell line (EGFR p.A864V)): > 3.16 µM
IC50 ([6]; Homo sapiens, HL-60, read-out: IC50 in cell proliferation assay, HL-60 cell line): > 3.16 µM
IC50 ([6]; Homo sapiens, HT, read-out: IC50 in cell proliferation assay, HT cell line): > 3.16 µM
IC50 ([6]; Homo sapiens, HT-1080, read-out: IC50 in cell proliferation assay, HT-1080 cell line): 2.99 µM
IC50 ([6]; Homo sapiens, Hs-578T, read-out: IC50 in cell proliferation assay, Hs 578T cell line): > 3.16 µM
IC50 ([6]; Homo sapiens, HuTu80, read-out: IC50 in cell proliferation assay, HuTu 80 cell line): 0.039 µM
IC50 ([6]; Homo sapiens, J82, read-out: IC50 in cell proliferation assay, J82 cell line): > 3.16 µM
IC50 ([6]; Homo sapiens, Jurkat E6.1, read-out: IC50 in cell proliferation assay, Jurkat E6.1 cell line): > 3.16 µM
IC50 ([6]; Homo sapiens, K562, read-out: IC50 in cell proliferation assay, K-562 cell line): > 3.16 µM
IC50 ([6]; Homo sapiens, KATO III, read-out: IC50 in cell proliferation assay, KATO III cell line (FGFR2 amplification)): 0.008 µM
IC50 ([6]; Homo sapiens, KG-1, read-out: IC50 in cell proliferation assay, KG-1 cell line (FGFR1OP2-FGFR1)): 0.00229 µM
IC50 ([6]; Homo sapiens, KLE, read-out: IC50 in cell proliferation assay, KLE cell line): > 3.16 µM
IC50 ([6]; Homo sapiens, KMS-11, read-out: IC50 in cell proliferation assay, KMS-11 cell line (FGFR3 p.Y373C)): 0.026 µM
IC50 ([6]; Homo sapiens, KU812, read-out: IC50 in cell proliferation assay, Ku812 cell line): > 3.16 µM
IC50 ([6]; Homo sapiens, Kasumi 1, read-out: IC50 in cell proliferation assay, Kasumi-1 cell line (KIT p.N822K)): 3.42 µM
IC50 ([6]; Homo sapiens, LC-2-ad, read-out: IC50 in cell proliferation assay, LC-2/ad cell line (CCDC6-RET)): 3.45 µM
IC50 ([6]; Homo sapiens, LNCaP-Clone-FGC, read-out: IC50 in cell proliferation assay, LNCaP clone FGC cell line): > 3.16 µM
IC50 ([6]; Homo sapiens, LS174T, read-out: IC50 in cell proliferation assay, LS174T cell line): > 3.16 µM
IC50 ([6]; Homo sapiens, LS-411N, read-out: IC50 in cell proliferation assay, LS411N cell line (BRAF p.V600E)): > 3.16 µM
IC50 ([6]; Homo sapiens, LoVo, read-out: IC50 in cell proliferation assay, LoVo cell line): > 3.16 µM
IC50 ([6]; Homo sapiens, MCF7, read-out: IC50 in cell proliferation assay, MCF-7 cell line): > 3.16 µM
IC50 ([6]; Homo sapiens, MDA-MB-231, read-out: IC50 in cell proliferation assay, MDA-MB-231 cell line): > 3.16 µM
IC50 ([6]; Homo sapiens, MDA-MB-453, read-out: IC50 in cell proliferation assay, MDA-MB-453 cell line): 0.655 µM
IC50 ([6]; Homo sapiens, MDA-MB-468, read-out: IC50 in cell proliferation assay, MDA-MB-468 cell line): > 3.16 µM
IC50 ([6]; Homo sapiens, MG-63, read-out: IC50 in cell proliferation assay, MG-63 cell line): 0.189 µM
IC50 ([6]; Homo sapiens, MIA PaCa-2, read-out: IC50 in cell proliferation assay, MIA PaCa-2 cell line): > 3.16 µM
IC50 ([6]; Homo sapiens, MKN-45, read-out: IC50 in cell proliferation assay, MKN45 cell line (MET amplification)): 4.26 µM
